Values of other authors, collected in US9498539B2, “Affinity-based controlled release system” (priority 2012, dated 2016).
Read-outs that look alike come from different tables or passages of the source.

Assays:
Streptavidin = Streptavidin (Streptomyces avidinii, UniProt P22629); details: streptavidin binds 2-iminobiotin, medium affinity; cited from earlier work
[1] = 24 h; cited from earlier work
[2] = target: Src homology 3 domain (SH3) (Saccharomyces cerevisiae, UniProt P15891); details: read-out: Kd (affinity to SH3), SH3-binding peptide to SH3, not part of the composition, cited from earlier work
Src homology 3 domain (SH3), sequence (P15891 532-592 limits assumed): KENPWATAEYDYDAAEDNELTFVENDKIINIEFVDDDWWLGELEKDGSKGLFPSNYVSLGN

Streptavidin, sequence (P22629 25-183): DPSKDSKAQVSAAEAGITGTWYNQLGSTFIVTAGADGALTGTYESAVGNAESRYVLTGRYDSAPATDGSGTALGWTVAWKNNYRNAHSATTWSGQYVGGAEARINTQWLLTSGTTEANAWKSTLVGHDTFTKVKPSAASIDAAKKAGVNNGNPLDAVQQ

Compound: N=C1N[C@H]2[C@H](CS[C@H]2CCCCC(=O)O)N1 [2-iminobiotin]
- Kd (Streptavidin): 12.5 µM

Compound: FGF-2: basic fibroblast growth factor, literature data of Nakamura et al.
- remaining bioactivity [1]: < 10%

Compound: KPPVVKKPHYLS [compound 4]
- Kd [2]: 27 µM
- Kd ([2]; listed as weak binder): 10 µM
